Measured values taken from patent publication US12357641B2, “Identification of oleanolic acid and plant extract for glucose-6-phosphate dehydrogenase-related disorders including Bag3opathy” (Hong Kong Baptist University, priority 2022, dated 2025).

Assays:
[1] = test system: G6PD; test: Oleanolic acid treatment in Bag3opathy patient: serum G6PD protein by ELISA; type: in vivo, human; details: oral capsules 180 mg/day for three months, before treatment 0.09 ng/mL, normal girls 7.25±9.38 ng/mL
Description: The concentration of G6P in serum was determined by High Sensitivity G6P Assay Kit (Catalog #: K687-100, BioVision, Inc. USA) following the manufacturer's instruction. Briefly, a volume of 200 μL of samples was deproteinized with 10 kDa MWCO spin filter prior to the reaction. After adding 50 μL of the appropriate reaction mix into each 50 μL of filtrate, the reaction was incubated for 5 min at 37° C. and protected from light. Finally, the concentration of G6P was calculated according the fluorescence intensity (λex=535/λem=587) measured by fluorometer (EnVision 2104 Multilabel Reader, PerkinElmer, USA). The serum levels of G6PD (SEA716Hu, Cloud-Clone Corp), GPI, catalase (CAT), thioredoxin (TXN), and superoxide dismutase 1 (SOD1) were measured by Elisa Kits purchased from Cloud-Clone Crop Inc. (USA). Serum samples were diluted 100 folds in PBS for measurements of CAT and TXN, and were diluted 800 folds for SOD1 test. The activity of PGM was determined by Colorimetric Assay Kit from BioVision (Inc. USA). Samples were prepared and measured at 450 nm by Elisa reader (Benchmark Plus, BioRad, USA) depending on the manufacturer's instructions.
The Bag3opathy patient (body weight of patient: 40 kg) was orally administrated with Chinese medicine supplements containing oleanolic acid (180 mg per day) to evaluate the effects of treatment on BAG3 associated MFM for 3 months. […]

[2] = test system: G6PD; test: Oleanolic acid treatment in normal mice: G6PD protein by ELISA in serum, heart muscle and skeletal muscle; type: in vivo, mouse; details: for G6PD protein in heart muscle: control 0.36±0.26 ng/mg; for G6PD protein level in serum: control 1.79±0.99 ng/mL
Description: BAG3 P209-KI mice were reproduced by mating between the P209L/+ male and female mice. All mice were maintained with free access to food and water in plastic cages at 22±2° C. and kept on a 12-h light/dark cycle. Animal welfare and experimental procedures were carried out in accordance with the related ethical regulations of Yunnan Minzu University. […] Heart muscle and skeletal muscle samples were obtained after cardiac perfusion with cold PBS. Muscle tissues were lysed into homogenate in ice-cold lysis buffer (150 mM NaCl, 50 mM Tris, pH7.5, 1% NP-40, 0.1% sodium deoxycholate) plus 1 mM PMSF. Samples were then sonicated on ice and centrifuged at 10,000 g for 5 min. The concentration of G6PD in serum, heart muscle, and skeletal muscle were determined by G6PD Elisa Kit (Catalog #: SEA716Mu, Cloud-Clone Corp. USA) following the manufacturer's instruction. The plate was read at 450 nm by the microplate reader (iMark, Biorad, USA). The concentration of the total protein from tissue samples was determined by the spectrophotometer (NanoDrop One, Thermo Scientific, USA).
Seventeen normal male C57BL/6 mice, 6-8 weeks of age, were purchased from Hunan SJA Laboratory Animal Co., Ltd (Changsha, China). They were maintained with free access to food and water in plastic cages at 22±2° C. and kept on a 12-h light/dark cycle. Animal welfare and experimental procedures were carried out in accordance with the related ethical regulations of Yunnan Minzu University. Mice were randomly divided into one control group (n=6) and two dug treatment groups (n=5, 6). Oleanolic acid was suspended in 0.5% carboxymethylcellulose sodium (CMC-Na) solution with the concentration of 10 and 2.5 mg/mL. In the control and drug treatment groups, 0.5% CMC-Na and oleanolic acid (50, 200 mg/kg/day) was given orally for 10 days, respectively. On the 11th day, mice were sacrificed, and the serum and tissue samples were prepared and detected as the method described previously.

[3] = test system: creatine kinase-MB (CK-MB); test: Oleanolic acid treatment in Bag3opathy patient: creatine kinase-MB (cardiac marker) in blood; type: in vivo, human; details: oral capsules 180 mg/day for three months, before treatment 24 U/L
Description: The Bag3opathy patient (body weight of patient: 40 kg) was orally administrated with Chinese medicine supplements containing oleanolic acid (180 mg per day) to evaluate the effects of treatment on BAG3 associated MFM for 3 months. 3 mL serum was collected for analysis before and after the treatment. The trial was approved the Ethics Committee of Hong Kong Baptist University (HASC/15-16/0268) according to the principles of the Declaration of Helsinki, and obtained the consent form.

With CC1(C)CC[C@]2(C(=O)O)CC[C@]3(C)C(=CC[C@@H]4[C@@]5(C)CC[C@H](O)C(C)(C)[C@@H]5CC[C@]43C)[C@@H]2C1 [oleanolic acid, Oleanolic acid] the “serum G6PD protein after treatment” value [1] was 2.43 ng/mL, the “G6PD protein in skeletal muscle” value ([2]; oral 50 mg/kg daily for ten days, control 0.11±0.04 ng/mg, p=0.035) was 0.19 ± 0.04 ng/mg and the “G6PD protein in heart muscle” value ([2]; oral 50 mg/kg daily for ten days, p=0.36) was 0.54 ± 0.32 ng/mg. For the same compound, the “G6PD protein level in serum” value ([2]; oral 50 mg/kg daily for ten days, p=0.140) was 3.74 ± 1.91 ng/mL, the “G6PD protein in heart muscle” value ([2]; oral 200 mg/kg daily for ten days, p=0.011) was 0.93 ± 0.43 ng/mg and the “G6PD protein level in serum” value ([2]; oral 200 mg/kg daily for ten days, p=0.049) was 4.47 ± 3.07 ng/mL. For the same compound, the “creatine kinase-MB (CK-MB) after treatment” value [3] was 16 U/L.
